From US12728098B2, “Methods of producing extracellular vesicles” (LONZA SALES AG, priority 2019, dated 2026) come the findings set out here.

A short description of data set [1]: CDN in plasma / systemic circulation after IT injection, LC-MS/MS. The class given is in vivo, C57BL/6 mice. As for the experimental part: (§1) C57BL/6 mice were implanted subcutaneously with 1×10^6 B16F10 cells. FIGS. 14A and […] are graphical representations showing the concentration of CDN2 in tumors (FIG. 14A) and plasma (FIG. 14B) as measured by LC-MS/MS at 5 minutes, 30 minutes, 2 hours, 6 hours, 24 hours, and 48 hours after single IT injection (n=3 per group at each time point) in C57BL/6 mice implanted subcutaneously with 1×10^6 B16F10 cells. FIGS. 14C-14E are graphs showing the relative expression of IFN-β (FIG. 14C), CXCL9 (FIG. 14D), and CXCL10 (FIG. 14E) genes as measured by RT-qPCR, normalized against the housekeeping gene RPS13. FIGS. 14F-14H are graphs showing serum levels of IFN-β (FIG. 14F), TNF-α (FIG. 14G), and IL-6 (FIG. 14H) (n=5 per group). Data are presented as means±s.e.m. *, P<0.05; **, P<0.01; ***, P<0.001; ****, P<0.0001 by one-way ANOVA with Tukey's multiple comparison test.
(§2) A major limitation of IT administration of free CDN is its rapid dissemination into the systemic circulation (see Sivick et al., Cell Rep. 25, 3074-3085.e5 (2018)). […] This reduces the effectiveness of the CDN to elicit a productive immune response in the tumor resulting in higher doses of free CDN required for efficacy. In B16F10 tumors after injection of exoSTING or free CDN, we measured the amount of CDN in tumors and blood over time.
Further, free CDN2 is cleared rapidly in the systemic circulation (106 mL/hr).

In data set [2] the test system is T cells stimulated by anti-CD3 and anti-CD28. The data set can be described thus: IFN-β production in T cells stimulated by anti-CD3 and anti-CD28. Conditions: FIG. 17F. Format: cell-based, human. The text has this:
(§3) FIGS. 17F and 17G show representative dose-response curves of IFN-β production (FIG. 17F) and cytotoxicity (FIG. 17G) in stimulated T cells after treating with free CDN2 and exoCDN2. T cells were purified from human PBMCs and stimulated with anti-CD3/anti-CD28.
(§4) Next, we characterized the effect of exoSTING for free CDN on naïve or TCR stimulated T cells. We purified T cells and treated them with a dose titration of exoSTING or free CDN and compared IFNβ production in the presence or absence of TCR stimulation. […] We next characterized induction of T cell death using Cytotox dye staining following exoSTING or free CDN2 treatment in T cells stimulated with anti-CD3 and anti-CD28. Following free CDN2 treatment, we observed a dose dependent increase in T cell death (up to ~20% of T cells) as measured by Cytotox dye staining (FIG. 17G). […] Importantly, exoSTING preserves the viability of TCR stimulated T cells.

The subject of data set [3] is CD8+ T cells and XCR1+ DCs in B16F10 tumors. The data set can be described thus: Flow cytometry of B16F10 tumors after two IT injections. The class given is in vivo, mice. Conditions: 20 μg, FIG. 15D. As for the experimental part: FIG. 15 is a graphical representation of IFN-β positive area. FIG. 15C is a graphical representation of CD8 positive cells. FIGS. 15D-15E are graphical representations of the percentage of CD8 T cells in live CD45^+ cells in tumors (FIG. 15D) and CD86 expression on dendritic cells (FIG. 15E) as measured by flow cytometry after 2 doses of PBS, CDN2 (20 μg), and exoCDN2 (0.2 μg) into B16F10 tumors (n=5 per group). *, P<0.05; **, P<0.01; ****, P<0.0001 by one-way ANOVA with Tukey's multiple comparison test; n.s., non-significant.
We also assessed CD8^+ T cell and XCR1^+ DC activation after two IT injections of exoSTING and free CDN2 by flow cytometry. […] This increase in CD8^+ T cell is consistent with the increased CXCL9 and CXCL10 production following exoSTING treatment (FIGS. 14D and 14E). […] The enhanced activation of this DC subset seen with exoSTING but to a lesser degree with free CDN, is consistent with the observed superiority of anti-tumor activity of exoSTING in the B16F10 model (FIGS. 12 and 13).

For data set [4], the system named is global gene expression in B16F10 tumors. Description: RNA sequencing of B16F10 tumors after 1 or 2 IT injections. The class given is in vivo, mice. The note with it: after 2 doses, exoSTING 0.1 μg, free CDN2 20 μg, FIG. 16E. Here is the method: FIGS. 16A-16C are box plots showing the relative expression of IFN-β (FIG. 16A), CD274 (FIG. 16B), and CXCL9 (FIG. 16C) as measured by NanoString in RNA samples collected four hours after IT injection of PBS, CDN2 (0.1, 20, or 100 μg), and exoCDN2 (0.001, 0.01, or 0.1 μg) into B16F10 tumors. Data are presented as means±s.e.m. *, P<0.05; **, P<0.01; ***, P<0.001; ****, P<0.0001 by one-way ANOVA with Tukey's multiple comparison test. […] All genes were compared to PBS treatment. […] Adjusted P values are indicated.
To further characterize the immune pathway activation, we evaluated the global gene expression changes after 1 or 2 IT injections of efficacious doses of exoSTING (0.1 μg) and free CDN2 (20 μg) by RNA sequencing. All samples were compared to PBS treatment. […] Tcf7 (which encodes TCF1) is a key transcription factor expressed in the stem-like progenitor CD8^+ T cells (Siddiqui et al., Immunity. 50, 195-211.e10 (2019)). This cell subset is required for response to checkpoint inhibitor therapies. (Siddiqui, 2019). […] This loss may underlie the lack of immunological memory response to free CDN.
In contrast, high doses of free CDN decrease the expression of these key genes as well as reducing the expression of APC markers.

The next data set concerns naïve T cells. Description: IFN-β production in naïve T cells. Format: cell-based, human.
Text: as §4

The next data set concerns B16F10 tumor. Description: B16F10 subcutaneous tumor growth after intratumoral injection. Format: in vivo, C57BL/6 mice. The note with it: 0.1 μg CDN2, IT, FIG. 12F. Here is the method: C57BL/6 mice were implanted subcutaneously with 1×10^6 B16F10 cell on right flank of mice. Additional implantation of tumors is specified in each legend. When tumor volumes reached 50-100 mm^3, testing agents were injected intratumorally 3 times with 3 days interval. Red arrows in the graph indicate IT injection days. Tumor growth were measured over time. n=5 per group. […] RLU: Relative Luminescent Unit. ****, P<0.0001 by two-way ANOVA with Tukey's multiple comparison test for tumor growth studies. Data are presented as means±s.e.m. (FIGS. 12D-12F).
Data are presented as means±s.e.m. RLU: Relative Luminescent Unit. […]
We have previously identified and characterized exosome-specific surface glycoproteins using unbiased proteomic analysis and identified the immunoglobulin super family member PTGFRN as a protein that is enriched on human exosomes and contains nine predicted N-linked glycosylation sites (see Dooley et al., Cancer Res. 79(13 Suppl), Abstract nr 2150 (2019), which is incorporated by reference herein in its entirety). […] These populations of exosomes were next examined for their capacity activate STING pathway as measured by IFN-β production. […] EC50 values and maximal IFN-β cytokine production (Cmax) were assessed from multiple donors. […]

Data set [5] can be described thus: Pharmacokinetics of CDN in injected B16F10 tumors, LC-MS/MS. The note with it: injected tumor. Format: in vivo, C57BL/6 mice. Here is the method:
as §1, §2

A further data set has as its system B16F10 tumors. The data set can be described thus: Histology of injected B16F10 tumors (H&E, IFN-β mRNA, CD8, F4/80). The class given is in vivo. The note with it: free CDN2 20 μg, exoSTING 0.1 μg, 4 and 24 hours after two injections, FIG. 15A.
Another data set deals with human PBMC. The data set can be described thus: IFN-β production in human PBMC supernatant. Conditions: FIG. 12A. Format: cell-based.
The subject of data set [6] is T cells stimulated with anti-CD3 and anti-CD28. The class given is cell-based, human. Conditions: FIG. 17G.
Text: as §3, §4

Another data set has as its system splenocytes. The data set can be described thus: Tumor antigen-specific IFN-γ production in splenocytes (Trp2, GP100 & Tyr peptides). The class given is in vivo, mice. The note with it: two IT doses, day 4, FIG. 13G. Here is the method:
FIG. 13B provides representative H&E stained images from PBS, CDN2 (20 μg), and exoCDN2 (0.12 μg) treated samples. FIG. 13C is a table showing the number of complete responders by histopathological analysis. […] FIG. 13F is a graphical representation of tumor growth after CD8 T cell depletion in B16F10 tumor bearing mice following administration of the IgG (10 mg/kg) or anti-CD8 antibody (10 mg/kg) intraperitoneally, one day before IT injection (n=5 per group). Blue arrows indicate intraperitoneal injection days (FIG. 13F). […] Data are presented as means±s.e.m.
We next evaluated the capacity of exoSTING to induce systemic, antigen specific T cell responses in the B16F10 tumor model. Several tumor-associated CD8-dependent antigens have been identified as dominant antigens from B16F10 tumor cells (Kreiter et al., Nature 520, 692-696 (2015), which is incorporated by reference herein in its entirety).

Description for human PBMC: We compared the activity of co-administered exosomes and free CDN with exoSTING in in vitro PBMC assays.
These populations of exosomes were next examined for their capacity activate STING pathway as measured by IFN-β production. […] These CDN-loaded exosomes were assayed in vitro for their potential to induce IFN-β production in PBMC cultures. EC50 values and maximal IFN-β cytokine production (Cmax) were assessed from multiple donors.

Consider `Nc1ncnc2c1ncn2[C@@H]1O[C@@H]2COP(O)(=S)O[C@H]3[C@@H](F)[C@H](n4cnc5c(=O)[nH]cnc54)O[C@@H]3COP(O)(=S)O[C@H]2[C@H]1F` (some centres unmarked) [CDN2, cAIM(PS)2 Difluor (Rp/Sp)], for which, in data set [1] (30 μg IT), the “detection in the plasma at the 30-minute timepoint” value is “detectable in the plasma”. The “clearance in the systemic circulation” value in data set [1] (free CDN2 after IT injection (30 μg)) worked out at 106 mL/h. For the same compound, the EC50 in data set [2] is about 8.2 µM. The “number of viable CD8+ T cells compared PBS control” value in [3] is recorded as “significantly decreased”. Moreover, the Tcf7 levels entry in data set [4] is reported as “decrease in Tcf7 levels”. Further, the IFN-β production result with naïve T cells is given as “no IFN-β production was observed”. For the same compound, the tumor growth entry with B16F10 tumor was “Neither free CDN2 (0.1 μg) or co-administered PTGFRN^+/+ exosomes mixed with free CDN2 (0.1 μg) resulted in measurable tumor growth inhibition”. In addition, in data set [5] (0.3 μg single IT), the AUC was 799 ng·h/mL, the CL worked out at 0.375 mL/h, the Cmax was 1,240 ng/mL and the T1/2 was 0.620 h. In data set [5] (30 μg single IT), the AUC was 97,300 ng · hr/mL, the CL worked out at 0.308 mL/h, the Cmax is recorded as 13,800 ng/mL and the T1/2 is 2.05 h. In addition, the “tissue damage by H&E staining” value in the data set on B16F10 tumors was “significant evidence of tissue damage in the skin and tumor cell death”. This compound also showed an EC50 with human PBMC of about 9.7 µM. Moreover, in data set [6], the “T cell death by Cytotox dye staining (maximum, dose dependent)” value is ~ 20 % of T cells.
Take `Nc1ncnc2c1ncn2[C@@H]1O[C@@H]2COP(O)(=S)O[C@@H]3C(O)[C@@H](COP(O)(=S)O[C@H]2[C@H]1O)O[C@H]3n1cnc2c(N)ncnc21` (some centres unmarked) [CDN1, ML RR-S2]: the “increase in the number of IFN-γ positive spots compared to PBS control” value in the data set with splenocytes (0.2 μg) is “failed to induce IFN-γ positive spots”. Moreover, the “IFN-γ positive spots compared to PBS control” value in the data set on splenocytes (20 μg) is on record as “failed to induce IFN-γ positive spots”.
